Experimental data: ChEMBL document CHEMBL1275304, “Use of phosphonyl carbanions in the synthesis of anti-inflammatory active phosphorus-containing fused heterocycles and relevance phosphonates” (Eur J Med Chem, 2010)

How the values were obtained:
Rattus norvegicus [1] = assay: Antiinflammatory activity against carrageenan-induced fisher 344 rat paw edema model assessed as inhibition of granuloma; type: functional, organism-based
Mus musculus [2] = assay: Toxicity in albino mouse assessed as mortality at 500 to 1000 mg/kg, ip after 24 hrs; type: organism-based; set-up: dose 500-1000 mg/kg, route intraperitoneal; conditions: in vivo
[3] = Acute toxicity in ip dosed albino mouse after 24 hrs; type: organism-based; conditions: in vivo
Rattus norvegicus [4] = assay: Antiinflammatory activity against carrageenan-induced fisher 344 rat paw edema model assessed as reduction of paw volume at 50 mg/kg, ip after 3.5 hrs by plethysmometer; type: functional; conditions: fisher 344, ip, route intraperitoneal
Mus musculus [5] = assay: Toxicity in albino mouse assessed as toxic symptom at 500 to 1000 mg/kg, ip after 24 hrs; type: organism-based; set-up: dose 500-1000 mg/kg, route intraperitoneal; conditions: in vivo
Rattus norvegicus [6] = assay: Antiinflammatory activity against carrageenan-induced fisher 344 rat paw edema model assessed as inhibition of granuloma at 100 mg/kg; type: functional

SMILES | Activity (Rattus norvegicus [1]) | Activity (Mus musculus [2]) | LD50 at 24 h [3] | inhibition in vivo at 50 mg/kg (Rattus norvegicus [4]) | Activity (Mus musculus [5]) | inhibition in vivo at 100 mg/kg (Rattus norvegicus [6])
CCOP1(=O)OC(C)=c2sc(C(C(=O)OC)P(=O)(OCC)OCC)cc2=C1C(=O)OC (stereo not drawn) | Dose-dependent effect | Non-toxic | > 300 µmol/kg | 75.9% | Non-toxic | 
CCOP1(=O)OC(C)=c2sc(Br)cc2=C1C(=O)OC (stereo not drawn) |  |  | > 300 µmol/kg | 68.1% |  | 68.1%
CCOC(=O)C1=c2cc(Br)sc2=C(C)OP1(=O)OCC (stereo not drawn) |  |  | > 300 µmol/kg | 60.4% |  | 60.4%
COc1ccc2c(c1)c(CC(=O)O)c(C)n2C(=O)c1ccc(Cl)cc1 [INDOMETHACIN] |  |  | > 300 µmol/kg | 68.4% |  | 
CCOP1(=O)OC2(C)C(=O)C=CC2(C)C1C(=O)OC (stereo not drawn) |  |  | > 300 µmol/kg | 63.2% |  | 63.2%
CCOC(=O)C1=c2cc(C(C(=O)OCC)P(=O)(OCC)OCC)sc2=C(C)OP1(=O)OCC (stereo not drawn) | Dose-dependent effect | Non-toxic | > 300 µmol/kg | 76.1% | Non-toxic | 
CCOP1(=O)OC2(C)C(=O)C=CC2(C)C1C#N (stereo not drawn) |  |  | > 300 µmol/kg | 66.6% |  | 66.6%
CCOP1(=O)OC(C)=c2sc(C(C#N)P(=O)(OCC)OCC)cc2=C1C#N (stereo not drawn) |  | Non-toxic | > 300 µmol/kg | 81.1% | Non-toxic | 
CCOP(=O)(/C=C\c1cc2c(s1)=C(C)OP(=O)(OCC)C=2C)OCC (stereo not drawn) |  | Non-toxic | > 300 µmol/kg | 87.6% | Non-toxic | 
CCOC(=O)C1C2(C)C=CC(=O)C2(C)OP1(=O)OCC (stereo not drawn) |  |  | > 300 µmol/kg | 59.7% |  | 59.7%
CCOP1(=O)OC(C)=c2sc(Br)cc2=C1C#N (stereo not drawn) |  |  | > 300 µmol/kg | 62.8% |  | 62.8%
